These results are taken from patent US20190314318A1, “SUPPRESSION AND PREVENTION OF TUMORS AND TREATMENT OF VIRUSES” (priority 2018, published 2019).

The conditions of data set [1]: in vivo; cited from earlier work.
A short description of data set [2]: Additional benefits observed in people taking betaine. The data set is classed as in vivo, human. The source says:
Betaine is known to improve cardiovascular health, and can benefit people with fatty deposits in the liver. […] After only a few weeks of taking the betaine, cholesterol levels are reduced and the ability to lose weight is improved.

Where [3] appears, read: after only a few weeks of taking the betaine.

For `C[N+](C)(C)CC(=O)[O-]` [betaine, trimethylglycine], in data set [1], the serious side effects result is given as “no known serious side effects”. Besides, in data set [2] (a few doses of betaine at about one and a half to about three grams per day, especially older people), the “tendency to be light headed on getting up after prolonged squatting or kneeling” value is listed as “considerably lessened”. Further, in data set [2] (setting [3]), the “ability to lose weight” value was “improved” and the cholesterol levels result is reported as “reduced”.
